Assay results published in US5273903A, “Biotechnological process for the production of S-(+)-2,2-dimethylcyclopropanecarboxamide” (Lonza Ltd., priority 1991, dated 1993).
Several values for one entry are separate records, joined by “and”; a condition that tells them apart may be missing. Equal entries are not always repeated.

Columns and labels:
[1] = tested on: cell-free enzyme extract (R-(-)-2,2-DMCPCA-hydrolase); experiment: Activity of cell-free enzyme extract; type: biochemical, Comamonas acidovorans A:18; conditions: 30 °C; phosphate buffer 10 mM pH 7.0; 0.2 percent by weight R,S-(±)-2,2-DMCPCA; about 0.8 mg of protein
Description: After induction, the cells of Comamonas acidovorans A:18 were concentrated to an optical density at 650 nm from 210 to 95 ml in the HEPES buffer (10 mM, pH 7.0). Then, the cells were broken down twice in the French press at a pressure of 1200 bars. To obtain a cell-free enzyme extract, all of this material was then centrifuged at 20,000 rpm for 20 minutes. In this cell-free enzyme extract, the amount of protein (measured according to the Bradford method) was then determined as 39.3 mg of protein/ml. To determine the activity of these cell-free enzymes, 20 microliters (about 0.8 mg of protein) of this cell-free enzyme extract was taken up in 4 ml of phosphate buffer (10 mM, pH 7.0), containing 0.2 percent by weight of R,S-(±)-2,2-DMCPCA and incubated at 30° C. Here, 2.5 g of R-(-)-2,2-DMCPCA/h/g of protein (3.64 micromol/min/g of protein) was converted to the corresponding acid.

[2] = tested on: R-(-)-2,2-DMCPCA-hydrolase; experiment: Determination of activity of R-(-)-2,2-DMCPCA-hydrolase, microorganism suspension; type: cell-based, Comamonas acidovorans A:18 (DSM No. 6315); conditions: phosphate buffer 10 mmol pH 7.0, 0.2 percent by weight substrate, 3 hours
Description: To determine the activity of the hydrolase, the microorganism suspension was adjusted to an optical density of 0.5 at 650 nm. As a medium, a phosphate buffer (10 mmol), pH 7.0, with 0.2 percent by weight of R,S-2,2-DMCPCA, was used. […] The NH4^+ released by the hydrolase or the R-(-)-2,2-DMCPCS was measured and the activity reacted as g of R-(-)-2,2-DMCPCA was expressed /1/h/ optical density at 650 nm, provided that 1 mmol of formed NH4^+ equals 1 mmol of reacted R-(-)-2,2-DMCPCA.

[3] = tested on: R-(-)-2,2-DMCPCA-hydrolase; experiment: Hydrolase activity during biotransformation with whole cells; type: cell-based, Bacterium sp. VIII:II (DSM No. 6316); conditions: 0.2 percent by weight substrate; otherwise conditions of Example 3
Description: (§1) To determine the activity of the hydrolase, the microorganism suspension was adjusted to an optical density of 0.5 at 650 nm. As a medium, a phosphate buffer (10 mmol), pH 7.0, with 0.2 percent by weight of R,S-2,2-DMCPCA, was used. This suspension was incubated for 3 hours at 30° C. with shaking. The NH4^+ released by the hydrolase or the R-(-)-2,2-DMCPCS was measured and the activity reacted as g of R-(-)-2,2-DMCPCA was expressed /1/h/ optical density at 650 nm, provided that 1 mmol of formed NH4^+ equals 1 mmol of reacted R-(-)-2,2-DMCPCA.
(§2) Comamonas acidovorans A:18 was incubated on mineral salt medium-agar plates with glycerin as a C-source and ammonium sulfate as an N-source for 2 days at 30° C. With these plated-out microorganisms, an initial culture medium with the same composition was inoculated and incubated for 2 days at 30° C. […] After an incubation of about 25 hours at 37° C., R-(-)-2,2-DMCPCA was completely reacted to R-(-)-2,2-DMCPCS, which corresponded to an optical purity (ee) of 100 percent and an analytically measured yield in S-(+)-2,2-DMCPCA of 46.7 percent. […]
In contrast to Example 3, the biotransformation in this microorganism was performed with 0.2 percent by weight of R,S-(±)-2,2-DMCPCA, and the activity of the hydrolase was determined as 0.13 g/1/h/OD650nm.

[4] = tested on: R-(-)-2,2-DMCPCA-hydrolase; experiment: as above; type: cell-based, Pseudomonas sp. NSAK:42 (DSM No. 6433); conditions: 0.2 percent by weight substrate; otherwise conditions of Example 3
Description: as §1, §2
Analogously to Example 1, Pseudomonas sp. […] The biotransformation was performed with 0.2 percent by weight of R,S-(±)-2,2-DMCPCA, and the activity of the hydrolase was determined as 0.34 g/1/h/OD650nm.

[5] = tested on: immobilized biocatalyst (polyethylene imine/glutaraldehyde treated cells); experiment: Activity of immobilized cells (immobilized biocatalyst); type: cell-based, Comamonas acidovorans A:18; conditions: cells immobilized by polyethylene imine/glutaraldehyde treatment
Description: After induction (corresponding to Example 3), the cells of Comamonas acidovorans A:18, were harvested. These cells were immobilized by a polyethylene imine/glutaraldehyde treatment (corresponding to Czechoslovakian Patent No. 251,111). […] The dry weight of the biocatalyst corresponded to 32 percent of the moist weight. Then, the biocatalyst (with 55 g moist weight) was suspended in 800 ml of boric acid (10 mM, pH 9.0) with 16 g of R,S-(±)-2,2-DMCPCA. After an incubation time of 68.8 hours at 37 C and at a stirring speed of 200 rpm, R-(-)-2,2-DMCPCA was completely reacted to R-(-)-2,2-DMCPCS, which corresponded to an optical purity (ee) of 98.2 percent and an analytically measured yield in S-(+)-2,2-DMCPCA of 40 percent.

With `CC1(C)C[C@H]1C(N)=O` [R-(-)-2,2-DMCPCA, R-(-)-2,2-dimethylcyclopropanecarboxamide] the “converted to the corresponding acid” value [1] was 2.5 g/h/g of protein and 3.64 micromol/min/g of protein.
`CC1(C)CC1C(N)=O` (racemic) [R,S-(±)-2,2-DMCPCA, R,S-(±)-2,2-dimethylcyclopropanecarboxamide] was tested, and the “hydrolase Activity” value ([2]; 25 °C) was 0.25 g/l/h/OD650, the “hydrolase Activity” value ([2]; 30 °C) was 0.5 g/l/h/OD650 and the “hydrolase Activity” value ([2]; 37 °C) was 1.0 g/l/h/OD650. For the same compound, the “hydrolase Activity” value ([2]; 45 °C) was 1.5 g/l/h/OD650, the “hydrolase Activity” value ([2]; 48 °C) was 1.8 g/l/h/OD650 and the “hydrolase Activity” value ([2]; 55 °C) was 1.9 g/l/h/OD650. The “hydrolase Activity” value ([2]; 65 °C) was 0 g/l/h/OD650, the “activity of the hydrolase” value [3] was 0.13 g/1/h/OD650nm and the “activity of the hydrolase” value [4] was 0.34 g/1/h/OD650nm. For the same compound, the “activity of the immobilized biocatalyst” value [5] was 1.6 micromol/min g of dry weight.
